Experimental data reported in patent publication US9474275B2, “Cyanoenamines and their use as fungicides” (priority 2010, dated 2016).
Where two headings read alike, the source gives them in different places. Marks after values point to notes of the source that are not given here.

Key:
[1] = tested on: Phytophthora infestans; format: in vivo; settings: tomato plants, preventive spray, 500 ppm of active ingredient, evaluated 7 days after inoculation; 0% = untreated control, 100% = no disease
[2] = tested on: Plasmopara viticola; assay: Plasmopara test (grapevines) / preventive; format: in vivo; settings: grapevine plants, preventive spray, 100 ppm of active ingredient, evaluated 6 days after inoculation; 0% = untreated control, 100% = no disease
Experimental: Solvent: 24.5 parts by weight of acetone • 24.5 parts by weight of dimethylacetamide
Emulsifier: 1 part by weight of alkylaryl polyglycol ether
To produce a suitable preparation of active compound, 1 part by weight of active compound is mixed with the stated amounts of solvent and emulsifier, and the concentrate is diluted with water to the desired concentration. To test for preventive activity, young plants are sprayed with the preparation of active compound at the stated rate of application. After the spray coating has dried on, the plants are inoculated with an aqueous spore suspension of Plasmopara viticola and then remain for 1 day in an incubation cabinet at approximately 20° C. and a relative atmospheric humidity of 100%. The plant is subsequently placed for 4 days in a greenhouse at approximately 21° C. and a relative atmospheric humidity of approximately 90%. The plants are then misted and placed for 1 day in an incubation cabinet. The test is evaluated 6 days after the inoculation. 0% means an efficacy which corresponds to that of the untreated control, while an efficacy of 100% means that no disease is observed.

[3] = method [a]: LC-MS at pH 2.7, 0.1% formic acid in water / acetonitrile, linear gradient 10% to 95% acetonitrile
Experimental: Measurement of log P values was performed according EEC directive 79/831 Annex V.A8 by HPLC (High Performance Liquid Chromatography) on reversed phase columns with the following methods:
^[a] measurement of LC-MS was done at pH 2.7 with 0.1% formic acid in water and with acetonitrile (contains 0.1% formic acid) as eluent with a linear gradient from 10% acetonitrile to 95% acetonitrile.

SMILES | efficacy [1] [%] | efficacy [2] [%] | LogP (pH 2.7) | LogP (pH 7.5) | LogP [3]
CCCC(=O)C(C#N)=C(NC(C)COC)c1ccnn1C(F)F (centres unmarked) [Compound 98] | 100 | 94 | 2.73^[a] | – | –
CCCC(=O)C(C#N)=C(NC(C)c1ncc(C)s1)c1cccnc1Cl (racemic) [Compound 107] | 95 | 100 | 3.19^[a] | – | –
CC(C)C(C)NC(=C(C#N)C(=O)CC1CC1)c1cn(C)nc1C(F)F (centres unmarked) [Compound 4] | 95 | 94 | 3.27^[a] | – | –
CCCC(=O)C(C#N)=C(NC(C)COC)c1cn(C)nc1C(F)F (centres unmarked) [Compound 30] | 100 | 94 | 2.54^[a] | – | –
COCC(=O)C(C#N)=C(NC(C)C(C)C)c1cn(C)nc1C(F)F (centres unmarked) [Compound 56] | 95 | 78 | 2.42^[a] | – | –
CCCC(=O)C(C#N)=C(NC(C)COCC)c1cccnc1Cl (centres unmarked) [Compound 86] | 97 | 90 | – | – | –
CCC(=O)C(C#N)=C(NC(C)C(C)C)c1cccnc1Cl (centres unmarked) [Compound 5] | 100 | 93 | 3.11^[a] | 3.09^[b] | –
CC(C)C(C)NC(=C(C#N)C(=O)C1CCOC1)c1cccnc1Cl (centres unmarked) [Compound 28] | – | – | 2.70^[a] | – | –
CC=CC(=O)C(C#N)=C(NC(C)C(C)C)c1cccnc1Cl (centres unmarked) [Compound 75] | 90 | 88 | 3.35^[a] | – | –
CC(C)C(C)NC(=C(C#N)C(=O)CC1CC1)c1cccnc1Cl (centres unmarked) [Compound 11] | 100 | 82 | 3.55^[a] | – | –
COCC(C)NC(=C(C#N)C(=O)CC1CC1)c1cn(C)nc1C(F)F (centres unmarked) [Compound 2] | 100 | 94 | 2.54^[a] | – | –
CCCC(=O)C(C#N)=C(NC(C)c1c(F)cccc1F)c1cn(C)nc1C(F)F (centres unmarked) [Compound 110] | 95 | – | – | – | 3.46^[a]
CCC(=O)C(C#N)=C(NC(C)C(C)C)c1cn(C)nc1C(F)F (centres unmarked) [Compound 23] | 93 | – | – | – | 2.92^[a]
CC(NC(=C(C#N)C(=O)C1CC1)c1cn(C)nc1C(F)F)C1CC1 (centres unmarked) [Compound 59] | 90 | – | – | – | 2.90^[a]
CCCC(=O)C(C#N)=C(NC(C)CCC)c1cn(C)nc1C(F)F (racemic) [Compound 129] | 75 | – | – | – | 3.33^[a]
CCCC(=O)C(C#N)=C(NC(C)c1c(F)cccc1F)c1cccnc1Cl (centres unmarked) [Compound 106] | 75 | – | – | – | 3.46^[a]
CCCC(=O)C(C#N)=C(NC(C)C(C)(C)C)c1cn(C)nc1C(F)F (centres unmarked) [Compound 84] | 100 | 89 | 3.55^[a] | – | –
CCCC(=O)C(C#N)=C(NC(C)C1CC1)c1cn(C)nc1C(F)F (centres unmarked) [Compound 18] | 95 | 91 | 3.08^[a] | – | –
CCCC(=O)C(C#N)=C(NC(C)C1(Cl)CC1)c1cccnc1Cl (centres unmarked) [Compound 33] | 90 | 93 | 3.44^[a] | – | –
CCCC(=O)C(C#N)=C(NC(C)C(C)(C)C)c1cccnc1Cl (centres unmarked) [Compound 87] | 100 | 100 | – | – | –
CCCC(=O)C(C#N)=C(NC(C)C1=NOCC1)c1cccnc1Cl (racemic) [Compound 100] | 95 | – | – | – | 2.47^[a]
CC(NC(=C(C#N)C(=O)CC1CC1)c1cccnc1Cl)C1(Cl)CC1 (racemic) [Compound 27] | 93 | 95 | 3.39^[a] | – | –
CCCC(=O)C(C#N)=C(NC(C)C(C)C)c1cccnc1Cl (centres unmarked) [Compound 20] | 100 | 87 | 3.69^[a] | – | –
CCCC(=O)C(C#N)=C(NC(C)c1ccsn1)c1cccnc1Cl (centres unmarked) [Compound 85] | 97 | 87 | – | – | –

SMILES | efficacy [1] [%] | efficacy [2] [%] | LogP (pH 2.7) | LogP (pH 7.5) | LogP [3]
CCCC(=O)C(C#N)=C(NC(C)c1nccs1)c1cn(C)nc1C(F)F (centres unmarked) [Compound 80] | 95 | 94 | 2.59^[a] | – | –
CCCC(=O)C(C#N)=C(NC1CCC1)c1cccnc1Cl [Compound 102] | 80 | – | – | – | 3.13^[a]
CC(NC(=C(C#N)C(=O)CC1CC1)c1cn(C)nc1C(F)F)C1CC1 (centres unmarked) [Compound 64] | 98 | 94 | 3.04^[a] | – | –
CCCC(=O)C(C#N)=C(NC(C)CCC)c1cccnc1Cl (racemic) [Compound 117] | 80 | – | – | – | 3.65^[a]
CCCC(=O)C(C#N)=C(NC(C)C(=O)OCC)c1cn(C)nc1C(F)F (racemic) [Compound 131] | 80 | – | – | – | 2.78^[a]
CCCC(=O)C(C#N)=C(NC(C)C(C)OC)c1cccnc1Cl (mixture of isomers) [Compound 114] | 95 | – | – | – | 3.02^[a]
CC(NC(=C(C#N)C(=O)CC1CC1)c1cn(C)nc1C(F)F)c1nccs1 (centres unmarked) [Compound 81] | 95 | 92 | 2.59^[a] | – | –
CCCC(=O)C(C#N)=C(NC(C)CC)c1cn(C)nc1C(F)F (racemic) [Compound 122] | 90 | – | – | – | 2.98^[a]
CCCC(=O)C(C#N)=C(NC(C)C(C)C)c1ccc(Cl)nc1Cl (centres unmarked) [Compound 90] | 97 | 96 | 4.31^[a] | – | –
CC(C)CC(=O)C(C#N)=C(NC(C)C(C)C)c1cccnc1Cl (centres unmarked) [Compound 40] | 75 | – | – | – | 3.90^[a]
CCCC(=O)C(C#N)=C(NC(C)C(C)C)c1cn(C)nc1C(F)F (centres unmarked) [Compound 51] | 95 | 100 | 3.29^[a] | – | –
CCCC(=O)C(C#N)=C(NC(C)COC)c1cccnc1C (centres unmarked) [Compound 91] | 100 | – | – | – | 2.14^[a]
CCCCC(=O)C(C#N)=C(NC(C)C1(Cl)CC1)c1cccnc1Cl (centres unmarked) [Compound 47] | 75 | – | – | – | 2.33^[a]
CCCC(=O)C(C#N)=C(NC(C)C1CCC1)c1cccnc1Cl (racemic) [Compound 104] | 95 | – | – | – | 3.81^[a]
CCCC(=O)C(C#N)=C(NC(C)c1ccsn1)c1cn(C)nc1C(F)F (centres unmarked) [Compound 88] | 97 | 100 | 2.73^[a] | – | –
CCCC(=O)C(C#N)=C(NC(C)COC)c1cccnc1Cl (centres unmarked) [Compound 83] | 100 | 100 | – | – | –
CC(C)C(C)NC(=C(C#N)C(=O)C1(F)CC1)c1cccnc1Cl (centres unmarked) [Compound 10] | 95 | – | – | – | 3.29^[a]
CCCC(=O)C(C#N)=C(NC(C)CCc1ccccc1)c1cccnc1Cl (racemic) [Compound 116] | 85 | – | – | – | 4.16^[a]
CCCC(=O)C(C#N)=C(NC(C)CC1CC1)c1cn(C)nc1C(F)F (racemic) [Compound 130] | 85 | – | – | – | 3.35^[a]
CC(C)C(C)NC(=C(C#N)C(=O)C1CCC1)c1cccnc1Cl (centres unmarked) [Compound 44] | 85 | – | – | – | 3.80^[a]
C#CC(C)NC(=C(C#N)C(=O)CCC)c1cccnc1Cl (racemic) [Compound 112] | 83 | – | – | – | 2.9^[a]
CC(C)C(C)NC(=C(C#N)C(=O)C1CC1)c1cn(C)nc1C(F)F (centres unmarked) [Compound 52] | 75 | – | – | – | 3.11^[a]
C#CC(C)NC(=C(C#N)C(=O)CCC)c1cn(C)nc1C(F)F (racemic) [Compound 124] | 93 | – | – | – | 2.66^[a]
CC#CC(C)NC(=C(C#N)C(=O)CCC)c1cccnc1Cl (racemic) [Compound 113] | 85 | – | – | – | 3.09^[a]
